# What was measured:
# [1] = test system: GLS (Gardner lymphosarcoma); experiment: Transplanted Gardner lymphosarcoma (GLS) tumor in mice; type: in vivo; details: for oral activity / inhibitory activity orally: orally
# Experimental: (§1) The following table--Table 1--gives the results of several experiments in which mice bearing transplanted tumors were treated successfully with a compound of this invention. In the table, column 1 gives the name of the compound; column 2, the transplanted tumor; column 3, the dose level or dose level range and the number of days the dosage was administered; column 4, the route of administration, and column 5, the percent inhibition of tumor growth or percent prolongation of survival time, e.g., B16 and P388. (ROS is an abbreviation for Ridgeway osteogenic sarcoma; GLS for Gardner lymphosarcoma; P1534(J) and P388 are leukemias; CA 755 is an adenocarcinoma; and B16 is a melamoma).
# [2] = test system: experimental malignancies; details: in vivo; cited from earlier work
# [3] = test system: CA755; experiment: Transplanted CA755 adenocarcinoma in mice; type: in vivo; details: for oral activity / inhibitory activity orally: orally
# Experimental: as §1
# [4] = test system: ROS (Ridgeway osteogenic sarcoma); experiment: Transplanted Ridgeway osteogenic sarcoma (ROS) in mice; type: in vivo; details: for oral activity / inhibitory activity orally: orally
# Experimental: as §1
# [5] = test system: transplanted tumors; experiment: Activity against transplanted tumors in mice in vivo (general); details: for dose level at which comparable tumor inhibition or prolongation of life is shown: parenterally, intraperitoneal route
# Experimental: as §1
# [6] = Toxicity at higher oral dose levels in experimental animals; type: in vivo; details: orally, above 2 (VLB) and 2-4.5 (vincristine) mg./kg.
# [7] = test system: B16; experiment: Transplanted B16 melanoma in mice, prolongation of survival time; type: in vivo; details: IP
# Experimental: as §1
# [8] = test system: P1534(J); experiment: Transplanted P1534(J) leukemia in mice; type: in vivo
# Experimental: as §1
# [9] = test system: leukemias; details: human, in vivo; cited from earlier work
# [10] = humans; cited from earlier work
# [11] = test system: transplanted tumors; details: animals; cited from earlier work
structure (smiles),measurement,setting,value
"CCC1(O)CC2CN(CCc3c([nH]c4ccccc34)C(C(=O)OC)(c3cc4c(cc3OC)N(C=O)C3C5(OC(=O)N(C)C5=O)C(OC(C)=O)C5(CC)C=CCN6CCC43C65)C2)C1 (stereo not drawn) [vincristine 3""-methyl-3-spiro-5""-oxazolidone-2"",4""-dione]",Percent Inhibition of tumor growth,"[1]; 1.0 mg./kg. × 7 days, IP",61%
"CCC1CC2CN(CCc3c([nH]c4ccccc34)C(C(=O)OC)(c3cc4c(cc3OC)N(C)C3C(O)(C(=O)OC)C(OC(C)=O)C5(CC)C=CCN6CCC43C65)C2)C1 (stereo not drawn) [deoxy VLB ""A""]",activity in the treatment of experimental malignancies in animals,[2],active
"CC[C@]1(O)C[C@H]2CN(CCc3c([nH]c4ccccc34)[C@@](C(=O)OC)(c3cc4c(cc3OC)N(C=O)[C@H]3[C@@](O)(C(=O)OC)[C@H](OC(C)=O)[C@]5(CC)C=CCN6CC[C@]43[C@@H]65)C2)C1 [vincristine, leurocristine]",oral activity,[1]; 2-4.5 mg./kg.,"only marginally active, if at all"
same,oral activity,[3]; 2-4.5 mg./kg.,"only marginally active, if at all"
same,oral activity,[4]; 2-4.5 mg./kg.,"only marginally active, if at all"
same,activity by the oral route,[5],do not show this degree of oral activity
same,dose level at which comparable tumor inhibition or prolongation of life is shown,[5],0.2 to 0.25 mg/kg
same,toxicity at higher levels,[6],usually are toxic at higher levels
same,activity in the treatment of experimental malignancies in animals,[2],active
"CCC1(O)CC2CN(CCc3c([nH]c4ccccc34)C(C(=O)OC)(c3cc4c(cc3OC)N(C)C3C5(OC(=O)N(CCCl)C5=O)C(OC(C)=O)C5(CC)C=CCN6CCC43C65)C2)C1 (stereo not drawn) [VLB 3""-(β-chloroethyl)-3-spiro-5""-oxazolidine-2"",4""-dione]",Percent Inhibition of tumor growth,"[1]; 0.65 mg./kg. × 10 days, IP",47%
same,Percent Inhibition of tumor growth,"[1]; 0.5-0.6 mg./kg. × 9-10 days, IP",50-74%
same,Percent Inhibition of tumor growth,"[1]; 3-4 mg./kg. × 9 days, PO",92-100%
same,inhibitory activity orally,[1]; 3-6 mg./kg.,100%
same,Percent Prolongation of Survival Time,[7]; 0.4-0.6 mg./kg. × 10 days,25-178%
same,indefinite survivors (survived for 60 days till end of trial),[7]; 0.4-0.6 mg./kg. × 10 days,5
same,Percent Inhibition of tumor growth,"[3]; 0.75-1.0 mg./kg. × 10 days, IP",53%
same,Percent Inhibition of tumor growth,"[3]; 3-5 mg./kg. × 9-10 days, PO",59-92%
same,inhibitory activity orally,[3]; 3-6 mg./kg.,100%
same,Percent Inhibition or Prolongation of Survival Time,"[8]; 3.5 mg./kg. × 8 days, PO",100%
same,Percent Inhibition or Prolongation of Survival Time,"[8]; 0.4-0.6 mg./kg. × 10 days, IP",61-86%
same,inhibitory activity orally,[4]; 3-6 mg./kg.,100%
"C=CCN1C(=O)OC2(C1=O)C(OC(C)=O)C1(CC)C=CCN3CCC4(c5cc(C6(C(=O)OC)CC7CN(CCc8c6[nH]c6ccccc86)CC(O)(CC)C7)c(OC)cc5N(C)C24)C31 (stereo not drawn) [VLB 3""-allyl-3-spiro-5""-oxazolidine-2"",4""-dione]",Percent Inhibition of tumor growth,"[1]; 2.5 mg./kg. × 7 days, IP",35%
CCC1(O)CC2CN(CCc3c([nH]c4ccccc34)C(C(=O)OC)(c3cc4c(cc3OC)N(C)C3C(O)(C(=O)OC)CC5(CC)C=CCN6CCC43C65)C2)C1 (stereo not drawn) [4-desacetoxyvinblastine],activity in the treatment of experimental malignancies in animals,[2],active
"CC[C@]1(O)C[C@@H]2CN(CCc3c([nH]c4ccccc34)[C@@](C(=O)OC)(c3cc4c(cc3OC)N(C)[C@H]3[C@@](O)(C(=O)OC)[C@H](OC(C)=O)[C@]5(CC)C=CCN6CC[C@]43[C@@H]65)C2)C1 [VLB, vincaleukoblastine]",oral activity,[1]; 2 mg./kg.,"only marginally active, if at all"
same,oral activity,[3]; 2 mg./kg.,"only marginally active, if at all"
same,oral activity,[4]; 2 mg./kg.,"only marginally active, if at all"
same,activity by the oral route,[5],do not show this degree of oral activity
same,dose level at which comparable tumor inhibition or prolongation of life is shown,[5],0.4 to 0.45 mg/kg
same,toxicity at higher levels,[6],usually are toxic at higher levels
same,activity in the treatment of experimental malignancies in animals,[2],active
CCC12CN3CCc4c([nH]c5ccccc45)C(C(=O)OC)(c4cc5c(cc4OC)N(C=O)C4C(O)(C(=O)OC)C(OC(C)=O)C6(CC)C=CCN7CCC54C76)CC(C3)C1O2 (stereo not drawn) [leuroformine],activity in the treatment of experimental malignancies in animals,[2],active
CCC1(O)CC2CN(CCc3c([nH]c4ccccc34)C(C(=O)OC)(c3cc4c(cc3OC)N(C)C3C(O)(C(=O)OC)C(OC(C)=O)C5(CC)C=CCN6CCC43C65)C2)C1 (stereo not drawn) [leurosidine],activity in the treatment of experimental malignancies in animals,[2],active
CCC1(O)CN2CCc3c([nH]c4ccccc34)C(C(=O)OC)(c3cc4c(cc3OC)N(C)C3C(O)(C(=O)OC)C(OC(C)=O)C5(CC)C=CCN6CCC43C65)CC(C2)C1O (stereo not drawn) [vincadioline],activity in the treatment of experimental malignancies in animals,[2],active
"CCC1(O)CC2CN(CCc3c([nH]c4ccccc34)C(C(=O)OC)(c3cc4c(cc3OC)N(C)C3C5(OC(=O)N(C)C5=O)C(OC(C)=O)C5(CC)C=CCN6CCC43C65)C2)C1 (stereo not drawn) [VLB 3""-methyl-3-spiro-5""-oxazolidine-2"",4""-dione]",Percent Inhibition of tumor growth,"[1]; 0.6 mg./kg. × 7 days, IP",100%
same,Percent Inhibition of tumor growth,"[1]; 1.25 mg./kg. × 9 days, IP",100%
same,Percent Inhibition of tumor growth,"[1]; 3-4 mg./kg. × 10 days, PO",100%
same,Percent Inhibition of tumor growth,"[1]; 3-5 mg./kg. × 10 days, PO",37-56%
same,inhibitory activity orally,[1]; 6-7 mg./kg.,100%
same,Percent Prolongation of Survival Time,[7]; 4.5 mg./kg. × 10 days,49-91%
same,indefinite survivors (survived for 60 days till end of trial),[7]; 0.5-0.6 mg./kg. × 10 days,3
same,Percent Inhibition of tumor growth,"[3]; 0.5-1.0 mg./kg. × 10 days, IP",43-100%
same,inhibitory activity orally,[3]; 6-7 mg./kg.,100%
same,Percent Inhibition or Prolongation of Survival Time,"[8]; 3-4 mg./kg. × 8 days, PO",100%
same,Percent Inhibition or Prolongation of Survival Time,"[8]; .5-.6 mg./kg. × 10 days, IP",100%
same,Percent Inhibition of tumor growth,"[4]; 5-7 mg./kg. × 10 days, PO",38-59%
same,inhibitory activity orally,[4]; 6-7 mg./kg.,100%
"CC[C@]1(O)C[C@@H]2CN(CCc3c([nH]c4ccccc34)[C@@](C(=O)OC)(c3cc4c(cc3OC)N(C)[C@H]3[C@@](O)(C(N)=O)[C@H](O)[C@]5(CC)C=CCN6CC[C@]43[C@@H]65)C2)C1 [vindesine, 4-desacetyl VLB C-3 carboxamide]",activity in leukemias in humans,[9],active in certain leukemias
same,neurotoxicity compared with vincristine,[10],less neurotoxicity than does vincristine
CCC1(O)CC2CN(CCc3c([nH]c4ccccc34)C(C(=O)OC)(c3cc4c(cc3OC)N(C)C3C(O)(C(=O)NCCS)C(O)C5(CC)C=CCN6CCC43C65)C2)C1 (stereo not drawn) [C-3 N-(β-mercaptoethyl)carboxamide of 4-desacetyl VLB],anti-tumor activity,[11],highly effective anti-tumor agent in mice
CC[C@]12CN3CCc4c([nH]c5ccccc45)[C@@](C(=O)OC)(c4cc5c(cc4OC)N(C)[C@H]4[C@@](O)(C(=O)OC)[C@H](OC(C)=O)[C@]6(CC)C=CCN7CC[C@]54[C@@H]76)C[C@H](C3)[C@H]1O2 [leurosine],activity in the treatment of experimental malignancies in animals,[2],active
CCC1(O)CN2CCc3c([nH]c4ccccc34)C(C(=O)OC)(c3cc4c(cc3OC)N(C)C3C(O)(C(=O)OC)C(OC(C)=O)C5(CC)C=CCN6CCC43C65)CC(O)(C2)C1 (stereo not drawn) [leurocolombine],activity in the treatment of experimental malignancies in animals,[2],active
CCC1(O)CN2CCc3c([nH]c4ccccc34)C(C(=O)OC)(c3cc4c(cc3OC)N(C)C3C(O)(C(=O)OC)CC5(CC)C=CCN6CCC43C65)CC(C2)C1O (stereo not drawn) [4-desacetoxy-3'-hydroxyvinblastine],activity in the treatment of experimental malignancies in animals,[2],active
"CCC1(O)CC2CN(CCc3c([nH]c4ccccc34)C(C(=O)OC)(c3cc4c(cc3OC)N(C)C3C5(OC(=O)N(C)C5=O)C(OC(=O)NC)C5(CC)C=CCN6CCC43C65)C2)C1 (stereo not drawn) [4-desacetyl VLB 3""-methyl-3-spiro-5""-oxazolidine-2"", 4""-dione-4-(N-methyl)carbamate]",Percent Inhibition of tumor growth,"[1]; 0.1-2.5 mg./kg. × 7-9 days, IP",40-100%
"CCC1(O)CC2CN(CCc3c([nH]c4ccccc34)C(C(=O)OC)(c3cc4c(cc3OC)N(C)C3C5(OC(=O)N(C)C5=O)C(O)C5(CC)C=CCN6CCC43C65)C2)C1 (stereo not drawn) [4-desacetyl VLB 3""-methyl-3-spiro-5""-oxazolidone-2"",4""-dione]",Percent Inhibition of tumor growth,"[1]; 2.5 mg./kg. × 7 days, IP",27%
